Data: patent US5061794A, “Cephalosporin derivatives, and antibacterial agents” (priority 1986, dated 1991)
Converted amounts (≈) assume the structure as drawn. Read-outs that look alike come from different tables or passages of the source.

How the values were obtained:
E. coli CSH(RE45) = test: microbe, parasite or virus in culture; format: cell-based; conditions: 10^6 CFU/ml; for MIC: Escherichia coli, 16 h, read-out: Minimum Inhibitory Concentration (MIC), *E. coli CSH(RE45), lactamase-producing strain
In short: (§1)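 MIC in μg/ml, read after 16 h at 37° C. on Mueller Hinton agar carrying graded compound levels; inoculum 10^6 CFU/ml from overnight Mueller Hinton broth.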

E. coli CSH2 (RK1) = test: microbe, parasite or virus in culture; format: cell-based; conditions: 10^6 CFU/ml; for MIC: Escherichia coli, 16 h, read-out: Minimum Inhibitory Concentration (MIC), *E. coli CSH2 (RK1), lactamase-producing strain
In short: as §1

E. cloacae 963 = test: in vitro antibacterial activity, agar plate dilution method (MIC); format: cell-based; conditions: 10^6 CFU/ml
In short: as §1

E. cloacae Nek 39 = test: as above; format: cell-based; conditions: 10^6 CFU/ml; for MIC: Enterobacter cloacae, NEK39, 16 h, read-out: Minimum Inhibitory Concentration (MIC), *E. cloacae Nek 39, lactamase-producing strain
In short: as §1

E. coli GN5482 = test: as above; format: cell-based; conditions: for MIC: Escherichia coli, GN5482, 16 h
In short: as §1

E. coli NIHJ JC2 = test: as above; format: cell-based; conditions: for MIC: Escherichia coli, NIHJJC2, 16 h, read-out: Minimum Inhibitory Concentration (MIC), E. coli NIHJ JC2, 10^6 CFU/ml, 37° C.
In short: as §1

K. oxytoca GN10650 = test: as above; format: cell-based; conditions: 10^6 CFU/ml; for MIC: Klebsiella oxytoca
In short: as §1

K. pneumoniae No. 42 = test: as above; format: cell-based; conditions: 10^6 CFU/ml; for MIC: Klebsiella pneumoniae, NO.42, 16 h, read-out: Minimum Inhibitory Concentration (MIC), *K. pneumoniae No. 42, lactamase-producing strain
In short: as §1

K. pneumoniae PCI-602 = test: as above; format: cell-based; conditions: 10^6 CFU/ml; for MIC: Klebsiella pneumoniae, PCI602, 16 h, read-out: Minimum Inhibitory Concentration (MIC), K. pneumoniae PCI-602
In short: as §1

M. morganii GN5407 = test: as above; format: cell-based; conditions: 10^6 CFU/ml; for MIC: Morganella morganii, GN5407, 16 h, read-out: Minimum Inhibitory Concentration (MIC), *M. morganii GN5407, lactamase-producing strain
In short: as §1

P. vulgaris HX-19 = test: as above; format: cell-based; conditions: for MIC: Proteus vulgaris, HX19, 16 h, read-out: Minimum Inhibitory Concentration (MIC)
In short: as §1

P. vulgaris No. 33 = test: as above; format: cell-based; conditions: 10^6 CFU/ml; for MIC: Proteus vulgaris, NO.33, 16 h, read-out: Minimum Inhibitory Concentration (MIC), *P. vulgaris No. 33, lactamase-producing strain
In short: as §1

S. aureus 209P NIHJ-JC1 = test: as above; format: cell-based; conditions: for MIC: Staphylococcus aureus, 16 h
In short: as §1

S. marcescens IAM 1184 = test: as above; format: cell-based; conditions: for MIC: Serratia marcescens, IAM1184, 16 h, read-out: Minimum Inhibitory Concentration (MIC)
In short: as §1

S. marcescens No. 16-2 = test: as above; format: cell-based; conditions: for MIC: Serratia marcescens, NO.162, 16 h
In short: as §1

Ps. aeruginosa AK 109 = test: as above; format: cell-based, Pseudomonas aeruginosa; conditions: Pseudomonas aeruginosa, AK109, 16 h
In short: as §1

Ps. aeruginosa AKR17 = test: as above; format: cell-based, Pseudomonas aeruginosa; conditions: Pseudomonas aeruginosa, read-out: Minimum Inhibitory Concentration (MIC)
In short: as §1

Ps. aeruginosa IF03445 = test: as above; format: cell-based, Pseudomonas aeruginosa; conditions: Pseudomonas aeruginosa, IF03445, 16 h, read-out: Minimum Inhibitory Concentration (MIC), Ps. aeruginosa IF03445; 10^6 CFU/ml
In short: as §1

Ps. cepacia 23 = test: as above; format: cell-based, Pseudomonas cepacia; conditions: Ps. cepacia 23, 10^6 CFU/ml; for MIC: Burkholderia cepacia, 16 h, read-out: Minimum Inhibitory Concentration (MIC)
In short: as §1

A. calcoaceticus No. 4 = test: as above; format: cell-based, Acinetobacter calcoaceticus; conditions: 10^6 CFU/ml; for MIC: Acinetobacter calcoaceticus, NO.4, 16 h
In short: as §1

[1] = Enterobacter cloacae, 963, 16 h, read-out: Minimum Inhibitory Concentration (MIC), E. cloacae 963
[2] = S. marcescens IAM 1184, 10^6 CFU/ml
[3] = read-out: Minimum Inhibitory Concentration (MIC)
[4] = Enterobacter cloacae, 16 h, E. cloacae 963, read-out: Minimum Inhibitory Concentration (MIC)
[5] = GN10650, 16 h, read-out: Minimum Inhibitory Concentration (MIC), *K. oxytoca GN10650, lactamase-producing strain
[6] = read-out: Minimum Inhibitory Concentration (MIC), *S. marcescens No. 16-2, lactamase-producing strain, 10^6 CFU/ml
[7] = 16 h, Ps. aeruginosa AKR17, 10^6 CFU/ml
[8] = read-out: Minimum Inhibitory Concentration (MIC), A. calcoaceticus No. 4
[9] = read-out: Minimum Inhibitory Concentration (MIC), Ps. aeruginosa AK 109, 10^6 CFU/ml
[10] = A. calcoaceticus No. 4, read-out: Minimum Inhibitory Concentration (MIC)

Row | Compound | MIC (E. cloacae 963; [1]) [µg/mL] | MIC (Ps. aeruginosa AK 109; [3]) [µg/mL] | MIC (Ps. aeruginosa AKR17; AKR17, 16 h) [µg/mL] | MIC (Ps. aeruginosa IF03445) [µg/mL] | MIC (E. coli CSH(RE45)) [µg/mL] | MIC (E. coli CSH2 (RK1)) [µg/mL] | MIC (E. cloacae Nek 39) [µg/mL] | MIC (E. coli GN5482; [3]) [µg/mL] | MIC (E. coli NIHJ JC2) [µg/mL] | MIC (K. oxytoca GN10650; [5]) [µg/mL] | MIC (K. pneumoniae No. 42) [µg/mL] | MIC (K. pneumoniae PCI-602) [µg/mL] | MIC (M. morganii GN5407) [µg/mL] | MIC (P. vulgaris HX-19; P. vulgaris HX-19, 10^6 CFU/ml) [µg/mL] | MIC (P. vulgaris No. 33) [µg/mL] | MIC (S. aureus 209P NIHJ-JC1; [3]) [µg/mL] | MIC (S. marcescens IAM 1184; [2]) [µg/mL] | MIC (S. marcescens No. 16-2; [6]) [µg/mL] | MIC (Ps. aeruginosa AKR17; [7]) [µg/mL] | MIC (Ps. cepacia 23) [µg/mL] | other results
1 | Nc1nc(C(=NOC(C(=O)O)c2ccccc2)C(=O)NC2C(=O)N3C(C(=O)O)=C(CSc4nc(C(=O)O)c(-c5ccc(O)c(O)c5)s4)CSC23)cs1 (single isomer, unassigned) [Example 51 DB] | 0.05 (≈ 0.0637 µM) | 0.39 (≈ 0.497 µM) | 0.39 (≈ 0.497 µM) | 0.39 (≈ 0.497 µM) |  |  |  |  |  |  |  |  |  |  |  |  |  |  |  |  | Minimum Inhibitory Concentration (MIC) (E. coli CSH(RE45); *E. coli CSH(RE45), lactamase-producing strain): 0.0125 µg/mL; Minimum Inhibitory Concentration (MIC) (E. coli CSH2 (RK1); *E. coli CSH2 (RK1), lactamase-producing strain): 0.0125 µg/mL; Minimum Inhibitory Concentration (MIC) (E. cloacae Nek 39; *E. cloacae Nek 39, lactamase-producing strain): 0.05 µg/mL; Minimum Inhibitory Concentration (MIC) (E. coli GN5482; *E. coli GN5482, lactamase-producing strain, 10^6 CFU/ml): 0.78 µg/mL; Minimum Inhibitory Concentration (MIC) (E. coli NIHJ JC2; E. coli NIHJ JC2, 10^6 CFU/ml, 37° C., 16 hours): 0.39 µg/mL; Minimum Inhibitory Concentration (MIC) (K. oxytoca GN10650; *K. oxytoca GN10650, lactamase-producing strain): 0.025 µg/mL; Minimum Inhibitory Concentration (MIC) (K. pneumoniae No. 42; *K. pneumoniae No. 42, lactamase-producing strain): 0.05 µg/mL; Minimum Inhibitory Concentration (MIC) (K. pneumoniae PCI-602; K. pneumoniae PCI-602): < 0.006 µg/mL; Minimum Inhibitory Concentration (MIC) (M. morganii GN5407; *M. morganii GN5407, lactamase-producing strain): 0.05 µg/mL; Minimum Inhibitory Concentration (MIC) (P. vulgaris HX-19; P. vulgaris HX-19, 10^6 CFU/ml): < 0.006 µg/mL; Minimum Inhibitory Concentration (MIC) (P. vulgaris No. 33; *P. vulgaris No. 33, lactamase-producing strain): 0.0125 µg/mL; Minimum Inhibitory Concentration (MIC) (S. aureus 209P NIHJ-JC1; S. aureus 209P NIHJ-JC1, 10^6 CFU/ml, 37° C., 16 hours): 25 µg/mL; Minimum Inhibitory Concentration (MIC) (S. marcescens IAM 1184; [2]): 0.05 µg/mL; Minimum Inhibitory Concentration (MIC) (S. marcescens No. 16-2; *S. marcescens No. 16-2, lactamase-producing strain, 10^6 CFU/ml): 0.78 µg/mL; Minimum Inhibitory Concentration (MIC) (Ps. cepacia 23): < 0.006 µg/mL; Minimum Inhibitory Concentration (MIC) (A. calcoaceticus No. 4; A. calcoaceticus No. 4): 0.1 µg/mL
2 | CO/N=C(\C(=O)N[C@@H]1C(=O)N2C(C(=O)O)=C(CSc3nnc(-c4ccc(OC(C)=O)c(OC(C)=O)c4)o3)CS[C@H]12)c1csc(N)n1 [Ex. 4, sodium 3-[5-(3,4-diacetoxyphenyl)-1,3,4-oxadiazol-2-yl]thiomethyl-7β-[2-(2-thiazol-4-yl)-2-methoxyiminoacetamido]-3-cephem-4carboxylate] |  | 0.39 |  | 0.78 | 0.78 | < 0.006 | 0.05 | 0.39 | 0.05 | 0.39 | 0.025 | < 0.006 | 0.0125 | < 0.006 | 0.0125 | 3.12 | < 0.006 | 1.56 | > 100 | 0.1 | MIC (E. cloacae 963; [4]): < 0.006 µg/mL; MIC (A. calcoaceticus No. 4; [8]): 0.1 µg/mL
3 | Nc1nc(/C(=N/Oc2ccccc2)C(=O)N[C@@H]2C(=O)N3C(C(=O)O)=C(CSc4nnc(-c5ccc(O)c(O)c5)o4)CS[C@H]23)cs1 [Ex. 22, sodium 7β-[2-(2-aminothiazol-4-yl)2phenoxyiminoacetamido]-3-[5-(3,4-dihydroxyphenyl)-1,3,4-oxadiazol-2-yl]thiomethyl-3-cephem-4-carboxylate] | 0.025 |  |  | 1.56 | < 0.006 | 0.0125 | 0.05 |  | 0.39 |  | 0.0125 | < 0.006 | 0.0125 | < 0.006 | 0.025 |  | 0.05 | 0.78 | > 100 | 0.025 | MIC (E. coli GN5482; read-out: Minimum Inhibitory Concentration (MIC), *E. coli GN5482, lactamase-producing strain, 10^6 CFU/ml): 0.78 µg/mL; MIC (K. oxytoca GN10650; 16 h, *K. oxytoca GN10650, lactamase-producing strain, read-out: Minimum Inhibitory Concentration (MIC)): 100 µg/mL; MIC (S. aureus 209P NIHJ-JC1; read-out: Minimum Inhibitory Concentration (MIC), S. aureus 209P NIHJ-JC1, 10^6 CFU/ml, 37° C., 16 hours): 0.78 µg/mL; MIC (Ps. aeruginosa AK 109; [9]): 1.56 µg/mL; MIC (A. calcoaceticus No. 4; [10]): 0.2 µg/mL
4 | Nc1nc(/C(=N/OCC(=O)O)C(=O)N[C@@H]2C(=O)N3C(C(=O)O)=C(CSc4nnc(-c5ccc(O)c(O)c5)o4)CS[C@H]23)cs1 [compound 10, disodium 78-[2-(2-aminothiazol-4-yl)-2-carboxylatemethoxyiminoacetamido]-3-[5-(3,4-dihydroxyphenyl)-1,3,4-oxadiazol-2-yl]thiomethvl-3-cephem-4-carboxylate] | 0.025 |  | 12.5 | 0.39 | 0.0125 | < 0.006 | 0.05 | 0.39 | 0.05 | 0.1 | 0.025 | < 0.006 | 0.025 | < 0.006 | 0.025 | 12.5 |  |  |  | < 0.006 | MIC (S. marcescens IAM 1184): 0.0125 µg/mL; MIC (S. marcescens No. 16-2; [3]): 0.39 µg/mL; MIC (Ps. aeruginosa AK 109; Ps. aeruginosa AK 109, 10^6 CFU/ml, read-out: Minimum Inhibitory Concentration (MIC)): 0.2 µg/mL; MIC (A. calcoaceticus No. 4; [10]): 0.05 µg/mL
5 | CCO/N=C(\C(=O)N[C@@H]1C(=O)N2C(C(=O)O)=C(CSc3ncc(-c4ccc(OC(C)=O)c(OC(C)=O)c4)o3)CS[C@H]12)c1csc(N)n1 [compound 67, disodium 3-[5-(3,4-diacetoxyphenyl)-oxazol-2-yl]thiomethyl-7β-[2-(2-aminothiazol-4)-2-ethoxyiminoacetamido]-3-cephem-4-carboxylate] |  |  |  | 1.56 | 0.1 | 0.0125 | 0.39 | 3.12 | 0.39 | 1.56 | 0.1 | < 0.006 | 0.05 |  | 0.025 | 3.12 | 0.1 | 6.25 | 50 | 0.05 | MIC (E. cloacae 963; [4]): 0.1 µg/mL; MIC (P. vulgaris HX-19): 0.0125 µg/mL; MIC (Ps. aeruginosa AK 109; [9]): 1.56 µg/mL; MIC (A. calcoaceticus No. 4; [8]): 0.39 µg/mL
